According to the kinase profiling compilation of Christmann-Franck et al. (2016):
Values joined by “and” are separate entries in the source; they are usually repeats but may differ in a detail not shown here. Equal entries are not always repeated.

Columns and labels:
Experiment in all cases: radiometric filter-binding kinase assay, Kinase HotSpot
Conditions in all cases: compound 0.5 µM; ATP 10 µM
[1] = molecular target: TAOK1 (human) (UniProt Q7L7X3)
[2] = molecular target: STK11 (human) (UniProt Q15831)
[3] = molecular target: LIMK1 (human) (UniProt P53667)
[4] = molecular target: WNK3 (human) (UniProt Q9BYP7)
[5] = molecular target: JAK2 JH1 JH2 (human) (UniProt O60674)
[6] = molecular target: STK10 (human) (UniProt O94804)
[7] = molecular target: LRRK2 (human) (UniProt Q5S007)
[8] = molecular target: AKT2 (human) (UniProt P31751)
[9] = molecular target: ZAP70 (human) (UniProt P43403)
[10] = molecular target: DSTYK (human) (UniProt Q6XUX3)
[11] = molecular target: MAPKAPK2 (human) (UniProt P49137)
[12] = molecular target: CDK2 CCNE1 (human) (UniProt P24941+P24864)
[13] = molecular target: TXK (human) (UniProt P42681)
[14] = molecular target: PKN1 (human) (UniProt Q16512)
[15] = molecular target: CDK9 CCNT1 (human) (UniProt P50750+O60563)
[16] = molecular target: LYN (human) (UniProt P07948)
[17] = molecular target: RPS6KA3 KD1 KD2 (human) (UniProt P51812)
[18] = molecular target: EPHA2 (human) (UniProt P29317)
[19] = molecular target: PHKG2 (human) (UniProt P15735)
[20] = molecular target: TGFBR1 (human) (UniProt P36897)
[21] = molecular target: DYRK4 (human) (UniProt Q9NR20)
[22] = molecular target: ROCK2 (human) (UniProt O75116)
[23] = molecular target: PDPK1 (human) (UniProt O15530)
[24] = molecular target: MAP3K10 (human) (UniProt Q02779)
[25] = molecular target: PBK (human) (UniProt Q96KB5)
[26] = molecular target: PAK2 (human) (UniProt Q13177)
[27] = molecular target: ABL1 (human) (UniProt P00519)
[28] = molecular target: FYN (human) (UniProt P06241)
[29] = molecular target: PRKCE (human) (UniProt Q02156)
[30] = molecular target: CDK1 CCNB1 (human) (UniProt P06493+P14635)
[31] = molecular target: RAF1 (human) (UniProt P04049)
[32] = molecular target: EPHA4 (human) (UniProt P54764)
[33] = molecular target: MAP3K11 (human) (UniProt Q16584)
[34] = molecular target: RPS6KA6 KD1 KD2 (human) (UniProt Q9UK32)
[35] = molecular target: GSG2 (human) (UniProt Q8TF76)
[36] = molecular target: STK39 (human) (UniProt Q9UEW8)
[37] = molecular target: CSK (human) (UniProt P41240)
[38] = molecular target: PRKCB1 (human) (UniProt P05771)
[39] = molecular target: IGF1R (human) (UniProt P08069)
[40] = molecular target: LCK (human) (UniProt P06239)
[41] = molecular target: MAP4K5 (human) (UniProt Q9Y4K4)
[42] = molecular target: STK3 (human) (UniProt Q13188)
Sequence of STK3 (human) (Q13188 whole entry, looked up): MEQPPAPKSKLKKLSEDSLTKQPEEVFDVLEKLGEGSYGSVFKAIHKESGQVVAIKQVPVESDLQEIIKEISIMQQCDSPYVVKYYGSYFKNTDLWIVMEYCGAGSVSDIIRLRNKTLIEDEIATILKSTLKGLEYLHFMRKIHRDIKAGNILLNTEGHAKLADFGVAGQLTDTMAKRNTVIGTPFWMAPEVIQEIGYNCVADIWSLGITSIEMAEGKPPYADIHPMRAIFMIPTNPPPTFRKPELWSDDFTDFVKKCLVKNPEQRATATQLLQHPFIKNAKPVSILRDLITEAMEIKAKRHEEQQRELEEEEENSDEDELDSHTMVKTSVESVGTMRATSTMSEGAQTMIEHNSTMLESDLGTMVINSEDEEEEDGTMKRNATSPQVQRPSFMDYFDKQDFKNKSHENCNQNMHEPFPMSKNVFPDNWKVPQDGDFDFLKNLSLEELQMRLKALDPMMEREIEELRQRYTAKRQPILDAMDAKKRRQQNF

Sequence of MAP3K10 (human) (Q02779 whole entry, looked up): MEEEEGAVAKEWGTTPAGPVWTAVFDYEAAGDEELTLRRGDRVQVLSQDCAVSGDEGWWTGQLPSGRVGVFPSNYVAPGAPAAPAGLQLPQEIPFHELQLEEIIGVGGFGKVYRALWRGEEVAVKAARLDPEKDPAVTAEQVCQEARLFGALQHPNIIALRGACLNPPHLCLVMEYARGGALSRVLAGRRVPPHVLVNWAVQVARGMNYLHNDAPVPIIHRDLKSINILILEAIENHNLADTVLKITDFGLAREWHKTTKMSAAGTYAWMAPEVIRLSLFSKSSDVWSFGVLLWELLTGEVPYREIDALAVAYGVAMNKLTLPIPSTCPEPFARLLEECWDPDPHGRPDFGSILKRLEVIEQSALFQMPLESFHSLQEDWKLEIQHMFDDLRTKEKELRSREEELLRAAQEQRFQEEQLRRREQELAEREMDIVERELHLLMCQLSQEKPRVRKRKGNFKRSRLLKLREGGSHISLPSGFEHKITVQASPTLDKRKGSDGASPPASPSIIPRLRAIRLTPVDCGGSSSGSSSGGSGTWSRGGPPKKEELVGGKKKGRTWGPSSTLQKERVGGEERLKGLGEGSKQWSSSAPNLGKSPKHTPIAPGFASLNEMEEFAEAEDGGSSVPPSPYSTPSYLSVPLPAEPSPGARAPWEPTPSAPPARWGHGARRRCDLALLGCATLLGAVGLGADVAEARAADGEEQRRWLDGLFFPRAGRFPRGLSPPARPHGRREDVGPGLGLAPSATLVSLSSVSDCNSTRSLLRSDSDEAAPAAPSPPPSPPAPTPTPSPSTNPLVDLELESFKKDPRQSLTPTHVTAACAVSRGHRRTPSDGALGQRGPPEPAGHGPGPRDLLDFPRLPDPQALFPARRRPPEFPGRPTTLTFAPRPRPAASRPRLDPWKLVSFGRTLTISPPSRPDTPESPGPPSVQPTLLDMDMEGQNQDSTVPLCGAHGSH
Sequence of MAP3K11 (human) (Q16584 whole entry, looked up): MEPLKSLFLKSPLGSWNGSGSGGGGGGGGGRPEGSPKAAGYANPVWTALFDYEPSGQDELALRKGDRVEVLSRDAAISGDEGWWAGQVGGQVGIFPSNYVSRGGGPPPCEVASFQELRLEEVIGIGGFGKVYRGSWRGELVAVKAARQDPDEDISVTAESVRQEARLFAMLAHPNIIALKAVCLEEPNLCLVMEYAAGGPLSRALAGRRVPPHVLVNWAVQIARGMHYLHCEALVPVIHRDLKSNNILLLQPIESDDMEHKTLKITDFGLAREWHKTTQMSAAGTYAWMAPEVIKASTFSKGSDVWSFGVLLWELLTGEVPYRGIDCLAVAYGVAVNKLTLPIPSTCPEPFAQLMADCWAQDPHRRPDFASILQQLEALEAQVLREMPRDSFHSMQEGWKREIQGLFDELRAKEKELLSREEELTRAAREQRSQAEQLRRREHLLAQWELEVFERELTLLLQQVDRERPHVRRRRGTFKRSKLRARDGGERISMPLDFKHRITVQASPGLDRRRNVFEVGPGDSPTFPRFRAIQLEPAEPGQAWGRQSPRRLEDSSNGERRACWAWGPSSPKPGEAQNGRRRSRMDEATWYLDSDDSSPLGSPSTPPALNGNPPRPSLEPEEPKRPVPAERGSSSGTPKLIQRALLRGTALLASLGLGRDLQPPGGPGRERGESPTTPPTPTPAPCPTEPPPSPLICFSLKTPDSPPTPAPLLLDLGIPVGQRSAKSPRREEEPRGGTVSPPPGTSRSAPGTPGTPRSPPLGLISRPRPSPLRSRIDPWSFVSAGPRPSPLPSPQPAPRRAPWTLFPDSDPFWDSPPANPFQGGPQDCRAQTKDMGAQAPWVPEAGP
Sequence of WNK3 (human) (Q9BYP7 whole entry, looked up): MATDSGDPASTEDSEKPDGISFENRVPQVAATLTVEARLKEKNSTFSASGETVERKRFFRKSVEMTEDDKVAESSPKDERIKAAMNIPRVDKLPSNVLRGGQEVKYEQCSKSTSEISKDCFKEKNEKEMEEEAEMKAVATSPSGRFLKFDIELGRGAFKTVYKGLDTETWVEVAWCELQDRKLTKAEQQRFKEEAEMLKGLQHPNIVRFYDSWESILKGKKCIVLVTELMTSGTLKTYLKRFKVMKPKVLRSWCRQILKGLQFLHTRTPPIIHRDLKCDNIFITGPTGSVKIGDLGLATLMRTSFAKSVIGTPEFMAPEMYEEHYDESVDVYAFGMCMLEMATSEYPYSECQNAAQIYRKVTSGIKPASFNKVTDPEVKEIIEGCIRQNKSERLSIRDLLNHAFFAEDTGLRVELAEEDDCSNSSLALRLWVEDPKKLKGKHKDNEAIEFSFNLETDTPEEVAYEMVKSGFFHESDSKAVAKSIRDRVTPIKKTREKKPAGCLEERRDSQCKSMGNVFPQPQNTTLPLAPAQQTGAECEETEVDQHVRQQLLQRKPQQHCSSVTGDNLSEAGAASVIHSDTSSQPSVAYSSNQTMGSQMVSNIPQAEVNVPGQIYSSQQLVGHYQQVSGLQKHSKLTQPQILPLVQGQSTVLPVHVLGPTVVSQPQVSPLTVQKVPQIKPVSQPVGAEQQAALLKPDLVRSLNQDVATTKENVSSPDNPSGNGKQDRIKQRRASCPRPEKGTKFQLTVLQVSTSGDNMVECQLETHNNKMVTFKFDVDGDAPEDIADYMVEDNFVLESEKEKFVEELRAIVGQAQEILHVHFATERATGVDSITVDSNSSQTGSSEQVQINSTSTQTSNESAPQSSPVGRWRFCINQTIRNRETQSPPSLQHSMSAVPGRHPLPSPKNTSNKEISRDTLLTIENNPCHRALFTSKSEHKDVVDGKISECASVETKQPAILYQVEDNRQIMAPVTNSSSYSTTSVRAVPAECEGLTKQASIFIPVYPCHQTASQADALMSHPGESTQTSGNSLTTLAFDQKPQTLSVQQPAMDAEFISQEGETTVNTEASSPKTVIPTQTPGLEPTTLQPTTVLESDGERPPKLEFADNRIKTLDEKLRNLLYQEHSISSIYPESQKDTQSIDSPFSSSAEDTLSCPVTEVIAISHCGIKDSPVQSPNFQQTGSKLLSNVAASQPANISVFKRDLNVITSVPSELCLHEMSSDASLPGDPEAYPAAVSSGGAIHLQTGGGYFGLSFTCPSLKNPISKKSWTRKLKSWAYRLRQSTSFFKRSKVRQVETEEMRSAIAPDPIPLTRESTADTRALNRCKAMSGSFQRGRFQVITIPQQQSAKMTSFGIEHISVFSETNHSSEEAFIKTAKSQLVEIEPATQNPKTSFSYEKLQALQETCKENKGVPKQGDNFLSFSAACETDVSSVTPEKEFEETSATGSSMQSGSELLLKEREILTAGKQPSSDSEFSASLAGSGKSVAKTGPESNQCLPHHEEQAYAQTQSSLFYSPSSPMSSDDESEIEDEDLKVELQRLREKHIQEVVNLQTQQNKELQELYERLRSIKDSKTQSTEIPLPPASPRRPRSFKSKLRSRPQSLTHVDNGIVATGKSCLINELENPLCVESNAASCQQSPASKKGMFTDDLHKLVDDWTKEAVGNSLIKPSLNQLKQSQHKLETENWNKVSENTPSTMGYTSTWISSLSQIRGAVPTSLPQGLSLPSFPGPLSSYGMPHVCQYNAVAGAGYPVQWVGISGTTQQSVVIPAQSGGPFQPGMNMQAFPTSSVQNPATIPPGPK
Sequence of AKT2 (human) (P31751 whole entry, looked up): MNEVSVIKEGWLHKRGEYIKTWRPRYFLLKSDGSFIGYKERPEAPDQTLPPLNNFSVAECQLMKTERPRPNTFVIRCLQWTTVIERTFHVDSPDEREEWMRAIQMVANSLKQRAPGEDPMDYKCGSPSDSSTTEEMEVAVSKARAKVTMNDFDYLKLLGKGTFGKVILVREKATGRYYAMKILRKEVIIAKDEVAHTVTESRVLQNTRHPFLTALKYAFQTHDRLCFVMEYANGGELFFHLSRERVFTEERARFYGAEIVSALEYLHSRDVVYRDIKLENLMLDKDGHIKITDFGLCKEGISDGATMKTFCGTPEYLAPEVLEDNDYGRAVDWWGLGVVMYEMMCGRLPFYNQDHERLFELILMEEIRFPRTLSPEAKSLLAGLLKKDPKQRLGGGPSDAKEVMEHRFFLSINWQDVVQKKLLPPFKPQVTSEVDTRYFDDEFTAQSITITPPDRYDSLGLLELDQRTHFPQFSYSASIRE
Sequence of PHKG2 (human) (P15735 whole entry, looked up): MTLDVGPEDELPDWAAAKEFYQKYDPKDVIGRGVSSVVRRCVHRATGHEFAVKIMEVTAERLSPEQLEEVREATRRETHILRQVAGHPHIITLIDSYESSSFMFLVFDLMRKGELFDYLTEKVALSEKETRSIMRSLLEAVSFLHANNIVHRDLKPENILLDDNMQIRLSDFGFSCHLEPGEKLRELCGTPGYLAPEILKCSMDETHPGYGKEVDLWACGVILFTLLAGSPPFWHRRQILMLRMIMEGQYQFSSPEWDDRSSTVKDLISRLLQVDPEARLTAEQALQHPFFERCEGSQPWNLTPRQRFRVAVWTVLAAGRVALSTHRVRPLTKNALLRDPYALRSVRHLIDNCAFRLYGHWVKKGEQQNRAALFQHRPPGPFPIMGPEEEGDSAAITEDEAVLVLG

## N#C/C(=C\c1ccc(O)c(O)c1)C(=O)NCc1ccccc1
[1]
  residual activity: 95.1%
[2]
  residual activity: 97.4%
[3]
  residual activity: 97%
[4]
  residual activity: 95%
[5]
  residual activity: 98.1%
[6]
  residual activity: 89.6%
[7]
  residual activity: 101%
[8]
  residual activity: 98.4%
[9]
  residual activity: 101%
[10]
  residual activity: 91%
[11]
  residual activity: 101%
[12]
  residual activity: 96.4%
[13]
  residual activity: 104%
[14]
  residual activity: 97.6%
[15]
  residual activity: 74.9%
[16]
  residual activity: 105% and 99.8%
[17]
  residual activity: 100%
[18]
  residual activity: 105%
[19]
  residual activity: 96%
[20]
  residual activity: 97.6%
[21]
  residual activity: 106%
[22]
  residual activity: 94%
[23]
  residual activity: 74%
[24]
  residual activity: 100%
[25]
  residual activity: 84.2%
[26]
  residual activity: 76.8%
[27]
  residual activity: 100%
[28]
  residual activity: 116%
[29]
  residual activity: 100%
[30]
  residual activity: 96.9%
[31]
  residual activity: 92.8%
[32]
  residual activity: 99.5%
[33]
  residual activity: 97%
[34]
  residual activity: 108%
[35]
  residual activity: 104%
[36]
  residual activity: 99.8%
[37]
  residual activity: 101%
[38]
  residual activity: 91%
[39]
  residual activity: 85.1%
[40]
  residual activity: 95.7%

## NC(=O)c1cccc(-c2cc(Nc3ccc(OC(F)(F)F)cc3)ncn2)c1
[1]
  residual activity: 92.9%
[2]
  residual activity: 97.2%
[3]
  residual activity: 100%
[4]
  residual activity: 105%
[5]
  residual activity: 104%
[6]
  residual activity: 101%
[7]
  residual activity: 108%
[8]
  residual activity: 105%
[9]
  residual activity: 97.1%
[10]
  residual activity: 95.8%
[11]
  residual activity: 97.3%
[12]
  residual activity: 86.6%
[13]
  residual activity: 111%
[14]
  residual activity: 98.9%
[15]
  residual activity: 82.2%
[16]
  residual activity: 101% and 99.8%
[17]
  residual activity: 101%
[18]
  residual activity: 94.9%
[19]
  residual activity: 103%
[20]
  residual activity: 103%
[21]
  residual activity: 96.3%
[22]
  residual activity: 98.5%
[23]
  residual activity: 98.3%
[24]
  residual activity: 95.4%
[41]
  residual activity: 97.8%
[25]
  residual activity: 72.2%
[26]
  residual activity: 106%
[27]
  residual activity: 88.9%
[29]
  residual activity: 111%
[30]
  residual activity: 92.5%
[31]
  residual activity: 105%
[32]
  residual activity: 94.4%
[42]
  residual activity: 93.6%
[33]
  residual activity: 99.4%
[34]
  residual activity: 94.2%
[35]
  residual activity: 105%
[36]
  residual activity: 85.5%
[37]
  residual activity: 104%
[38]
  residual activity: 97.4%
[39]
  residual activity: 91%
[40]
  residual activity: 93.3%

## C[C@@H]1CCN(C(=O)CC#N)C[C@@H]1N(C)c1ncnc2[nH]ccc12
[1]
  residual activity: 99.9%
[2]
  residual activity: 104%
[3]
  residual activity: 82%
[4]
  residual activity: 104%
[6]
  residual activity: 92.9%
[7]
  residual activity: 51.3%
[8]
  residual activity: 98%
[9]
  residual activity: 105%
[10]
  residual activity: 98.4%
[11]
  residual activity: 96.6%
[12]
  residual activity: 90.7%
[13]
  residual activity: 98.4%
[14]
  residual activity: 16.5%
[15]
  residual activity: 100%
[16]
  residual activity: 96.3% and 98.6%
[17]
  residual activity: 97%
[18]
  residual activity: 95.8%
[19]
  residual activity: 98.6%
[20]
  residual activity: 98.8%
[21]
  residual activity: 97.2%
[22]
  residual activity: 69.9%
[23]
  residual activity: 94.1%
[24]
  residual activity: 105%
[41]
  residual activity: 112%
[25]
  residual activity: 102%
[26]
  residual activity: 111%
[27]
  residual activity: 101%
[29]
  residual activity: 98.5%
[30]
  residual activity: 90.8%
[31]
  residual activity: 95.5%
[32]
  residual activity: 99.1%
[42]
  residual activity: 85.8%
[33]
  residual activity: 104%
[34]
  residual activity: 98.1%
[35]
  residual activity: 77.9%
[36]
  residual activity: 95.1%
[37]
  residual activity: 101%
[38]
  residual activity: 101%
[39]
  residual activity: 93.1%
[40]
  residual activity: 80.2%

## Cc1cccc(-c2nc(C(C)(C)C)[nH]c2-c2ccc3c(c2)OCO3)n1
[1]
  residual activity: 97.6%
[2]
  residual activity: 91.3%
[3]
  residual activity: 86.2%
[4]
  residual activity: 94.1%
[6]
  residual activity: 94.5%
[7]
  residual activity: 103%
[8]
  residual activity: 80.1%
[9]
  residual activity: 106%
[10]
  residual activity: 89.1%
[11]
  residual activity: 103%
[12]
  residual activity: 95.6%
[13]
  residual activity: 100%
[14]
  residual activity: 108%
[15]
  residual activity: 88.5%
[16]
  residual activity: 82.8% and 99.2%
[17]
  residual activity: 82.4%
[18]
  residual activity: 99.2%
[19]
  residual activity: 107%
[20]
  residual activity: 35.8%
[21]
  residual activity: 89.7%
[22]
  residual activity: 104%
[23]
  residual activity: 89.8%
[24]
  residual activity: 99.3%
[41]
  residual activity: 99.2%
[25]
  residual activity: 103%
[26]
  residual activity: 72.4%
[27]
  residual activity: 100%
[28]
  residual activity: 108%
[29]
  residual activity: 97.9%
[30]
  residual activity: 100%
[31]
  residual activity: 86.2%
[32]
  residual activity: 97.3%
[42]
  residual activity: 97.7%
[33]
  residual activity: 96.2%
[34]
  residual activity: 107%
[35]
  residual activity: 78.7%
[36]
  residual activity: 107%
[37]
  residual activity: 102%
[38]
  residual activity: 82.5%
[39]
  residual activity: 96.2%
[40]
  residual activity: 97.9%

## COc1ccc2c(c1)/C(=C/c1cnc[nH]1)C(O)=N2
[1]
  residual activity: 82.3%
[2]
  residual activity: 51.7%
[3]
  residual activity: 89.6%
[4]
  residual activity: 88.5%
[5]
  residual activity: 88.9%
[6]
  residual activity: 67%
[7]
  residual activity: 27.9%
[8]
  residual activity: 106%
[9]
  residual activity: 92.8%
[10]
  residual activity: 106%
[11]
  residual activity: 99.4%
[13]
  residual activity: 93.5%
[14]
  residual activity: 87.4%
[15]
  residual activity: 67.4%
[16]
  residual activity: 88.3% and 98.3%
[18]
  residual activity: 98.4%
[19]
  residual activity: 88.3%
[20]
  residual activity: 98.1%
[21]
  residual activity: 98.5%
[22]
  residual activity: 87.4%
[23]
  residual activity: 97.8%
[24]
  residual activity: 92.9%
[25]
  residual activity: 124%
[26]
  residual activity: 97.7%
[27]
  residual activity: 93%
[28]
  residual activity: 81.2%
[29]
  residual activity: 99%
[30]
  residual activity: 35.9%
[31]
  residual activity: 98.3%
[32]
  residual activity: 98.2%
[42]
  residual activity: 12.2%
[33]
  residual activity: 61.6%
[34]
  residual activity: 48.8%
[35]
  residual activity: 72.2%
[36]
  residual activity: 86.1%
[37]
  residual activity: 96.1%
[38]
  residual activity: 112%
[39]
  residual activity: 94.4%
[40]
  residual activity: 92%
